Reference: patent US11786507B2, “Methods of treating HIV-associated neurological disorders (HAND)” (priority 2020, dated 2023)

Columns and labels:
Assay type in all cases: in vivo, mouse
iTat mice [1] = assay: Open Field Test (OPT), locomotor activity; conditions: PAM 15 mg/kg/day s.c. vs DMSO
Description: (§1) Doxycycline (Dox)-inducible and astrocyte-specific HIV-1 Tat-transgenic mice (iTat) were generated as previously described.^38 Wild-type (Wt, C57BL/6) and α7 nAChR knockout mice (α7^−/−, B6.129S7-Chrna^7tm1Ba/J) were purchased from the Jackson Laboratory (Bar Harbor, ME). All the animal procedures were approved by the Institutional Animal Care and Use Committee. Mice were housed with a 12-hour light and 12-hour dark photoperiod and provided water and food ad libitum. α7^−/− iTat mice were generated by cross breeding iTat mice with α7^−/− mice. α7^−/− genotyping was slightly modified with the JumpStart™ Taq DNA Polymerase-based PCR (JumpStart™ Taq DNA Polymerase, Sigma, catalog #D9307). […] Mice of 10-14 weeks old with body weights of 20-35 grams were fed with Dox-containing diet (0.625 g/kg, Envigo, catalog #TD.01306) as stated.
(§2) Open Field Test (OPT) and Morris Water Maze (MWZ) were performed sequentially using a computerized video tracking system (Anymaze, Stoelting) to determine the spontaneous locomotor activity and spatial learning and memory, respectively. For OPT, each mouse was allowed to move freely around a clear acrylic chamber (40.5×40.5×30.5 cm) for 10 minutes. Travel distance and maximum speed was determined by the AnyMaze software. For MWZ, a circle pool (1.2 m diameter) surrounded with a curtain was divided into four equal quadrants, and four signs with different shape were fixed onto the middle of each quadrant wall above the opaque water (24±1° C.). A hidden platform (1.5 cm below water surface) was put into a certain quadrant. Two stages consisting of 5-day training and probe test were carried out. In the training stage, four trials with a 15-20 minute interval were conducted in the every-day training, and for each trial mice were allowed to freely seek the platform within 90 seconds right after they were randomly put into one quadrant facing to the pool wall. If the mice found the platform within 90 seconds, 10 seconds would be added to allow them staying on the platform for memorizing, however, if failed, they would be directed toward the platform and allowed to stay on it for 15 seconds. Mice that were immobile or floating and unable to find the platform during the training stages were excluded from the experiments. Probe test was carried out on the next day following the 5-day training stage with a 60 seconds trial, and the platform was removed to prevent the mice from climbing onto it during the testing. One day after the behavioral tests, mice were euthanized and the brains were harvested.
To determine if α7 nAChR is involved in HAND, iTat mice were fed with Dox-containing food pellets for 7 days, injected s.c. with a well-studied and highly specific positive allosteric modulator (PAM) PNU-120596 of α7 nAChR^73,74 […], and then subjected to open field test (OPT) for locomotor activity on day 14, and Morris Water Maze test (MWZ) for learning and spatial memory on day 15-20, and euthanized to harvest tissues on day 21 (FIG. 1A). Dox-containing food pellet feeding and PAM injection continued during the next 7 days of behavioral tests. To minimize the effects of injection on behavioral tests, PAM was injected 5 hours after each behavioral test.

[2] = test system: microglia in CORT of Wt and iTat mice; assay: Iba-1 immunohistochemistry (DAB), microglia morphology in CORT; conditions: PAM-treated iTat mice
Description: Mice were anesthetized using avertin (tribromoethanol) and transcardially perfused with first phosphate-buffered saline (PBS) and then 4% paraformaldehyde (PFA). Then, the brains were dissected out, fixed in 4% PFA at 4° C. overnight, dehydrated in 30% sucrose, embedded in OCT, sagittally sectioned (20 μm) using a cryostat, and preserved in a cryoprotectant containing 30% ethylene glycol, 30% glycerol, and 40% PBS. For staining, floating sections were permeabilized in 0.1% triton X-100 in PBS (PBST), blocked by 1% BSA in PBST, probed by Iba-1 antibody (Wako, catalog #019-19741, and 1:800 dilution), inactivated endogenous peroxidases in 1% hydrogen peroxide, probed again by a goat anti-rabbit secondary antibody (Southern Biotech, catalog #4030-05, and 1:200 dilution), and developed using a DAB kit (Abeam, catalog #ab103723). All images were taken using a Nikon Eclipse E800 microscope with a 20× objective and analyzed by the Cellprofiler program. Every section was averaged from three brain regions prefrontal, occipital and parietal cortex, and the average of the three sections was used to represent individual animals.
To further determine the relationship between microglia activation, Tat neurotoxicity, and PAM/α7 nAChR, immunohistochemistry staining was performed on microglia in CORT of Wt and iTat mice treated with and without PAM (FIG. 1). […]

iTat mice [3] = assay: Morris Water Maze (MWZ), training stage and probe test; conditions: mouse, in vivo
Description: as §1, §2
To determine if α7 nAChR is involved in HAND, iTat mice were fed with Dox-containing food pellets for 7 days, […], and then subjected to open field test (OPT) for locomotor activity on day 14, and Morris Water Maze test (MWZ) for learning and spatial memory on day 15-20, and euthanized to harvest tissues on day 21 (FIG. 1A). Dox-containing food pellet feeding and PAM injection continued during the next 7 days of behavioral tests. To minimize the effects of injection on behavioral tests, PAM was injected 5 hours after each behavioral test.

Structure (SMILES): COc1cc(OC)c(NC(=O)Nc2cc(C)on2)cc1Cl [PAM, 1-(5-chloro-2,4-dimethoxy-phenyl)-3-(5-methyl-isoxazol-3-yl)-urea]
- OPT maximum speed (iTat mice [1]; Wt and iTat mice): increases of the maximum speed of male Wt mice but not other mice
- OPT total travel distance (iTat mice [1]; Wt mice): some improvement of the travel distance of Wt mice
- OPT total travel distance (iTat mice [1]; iTat mice): improvement of the travel distance of iTat mice
- Number of microglia branches and endpoints [2]: fewer branches and endpoints than PAM-treated Wt mice and DMSO-treated iTat mice
- MWZ probe test latency to platform (iTat mice [3]): decreases of latency to platform in both male iTat and Wt mice
- MWZ probe test platform entries, time at platform, distance to platform (iTat mice [3]): no differences
- MWZ probe test time at target quadrant and distance to target quadrant (iTat mice [3]): reversed by PAM treatment with the differences in distance to target quadrant
- MWZ training stage cumulative travel distance (iTat mice [3]): differences of cumulative travel times in male iTat mice on day 4 and female iTat mice on day 2
- MWZ training stage escape latency and cumulative distance (iTat mice [3]): only some improvements on male Wt mice
- MWZ training stage escape latency time (iTat mice [3]): differences of escape latency time in male iTat mice on day 4 and 5 and female iTat mice on day 2 and 4
